# Measured values from US20230346735A1, “Nutritional Composition Comprising Carnitine and Method for Treating or Preventing an Infection in a Mammal” (priority 2020, published 2023).
# System: ACE-2
# Assay: ACE-2 surface protein in Calu-3 cells, flow cytometry
# Type: cell-based, human
# Details: Calu-3, 100, 500 and 1000 µM, less than L-carnitine
# Description: ACE-2 surface expression protein in Calu-3 cells was evaluated using FACS flow cytometry sorting. […] Cells were detached with PBS/EDTA at room temperature. FBS-containing growth media was added to cells to inactivate TE. Cells were spun for 5 min at […]. Supernatant was removed and cells were washed twice in flow buffer (PBS+0.2% FBS). Between 100,000-200,000 cells were stained for ACE-2 and BST2 (absent in Calu-3and used as a control) for 30 min on ice using goat anti-ACE-2 (R&D Systems; AF933) and PE-conjugated BST2 (BioLegend; Cat # 348406). Cells were washed once and stained with Alexa Fluor 647 donkey anti-goat for 30 min on ice. Cells were washed once, resuspended in PBS/EDTA and samples were acquired on a FACS LSR Fortessa cytometer (BD Bioscience). Data were analyzed using Flowjo (Version 10.1).
# The testing was repeated with D-Carnitine as well. Cells were either stained for ACE2 using either anti-ACE2 Ab, anti-BST2 Ab or the combination or both followed by secondary Ab isotype. […] The table represents the fluorescence counts.
smiles,measurement,value
C[N+](C)(C)C[C@@H](O)CC(=O)[O-] [D-carnitine],ACE-2 surface protein levels,decreased significantly
